The values below come from US7074789B2, “Kinase inhibitors” (Amgen Inc., priority 1999, dated 2006).

Common to all, as to type: biochemical
Test [1] deals with T1, PDGFRB (Homo sapiens, UniProt P09619).
T1 construct: Kinases are expressed as either kinase domains or full length constructs; made in house
The test can be described thus: Kinase inhibition assay (33P transfer), PDGFRB. The conditions noted are these: read-out: PDGFRB-1.

Test [2] concerns the target T2, IGFR-1 (Homo sapiens, UniProt P08069).
T2 construct: Kinases are expressed as either kinase domains or full length constructs; made in house
The test can be described thus: Kinase inhibition assay (33P transfer), IGFR-1. The following applies: Table 2, class symbols A-E.

For test [3], the target named is T3, AKT (Homo sapiens, UniProt Q9Y243).
T3 construct: Kinases are expressed as either kinase domains or full length constructs; made in house
T3 sequence (Q9Y243 whole entry, the tested form may be a part): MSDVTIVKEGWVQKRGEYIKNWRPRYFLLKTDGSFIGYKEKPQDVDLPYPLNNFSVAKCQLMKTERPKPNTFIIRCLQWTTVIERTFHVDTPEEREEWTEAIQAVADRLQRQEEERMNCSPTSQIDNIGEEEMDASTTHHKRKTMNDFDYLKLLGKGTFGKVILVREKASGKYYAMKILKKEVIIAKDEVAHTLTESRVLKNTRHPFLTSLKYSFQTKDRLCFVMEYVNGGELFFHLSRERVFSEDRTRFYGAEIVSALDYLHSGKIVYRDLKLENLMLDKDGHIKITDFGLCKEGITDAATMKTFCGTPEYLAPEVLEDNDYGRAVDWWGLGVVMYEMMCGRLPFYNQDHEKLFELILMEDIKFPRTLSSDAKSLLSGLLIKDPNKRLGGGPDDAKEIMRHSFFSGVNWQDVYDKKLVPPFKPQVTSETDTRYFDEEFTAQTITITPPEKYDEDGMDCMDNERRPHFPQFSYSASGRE
Description: Kinase inhibition assay (33P transfer), AKT. The following applies: Table 2, class symbols A-E; read-out: AKT3-1. A digest of the protocol: (§1)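 33P-ATP transfer to coated synthetic polymer substrates; acid wash (0.5% H3PO4), scintillant, liquid scintillation count. Enzymes: His- or GST-fusion kinases from E. coli or High Five insect cells.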

Test [4] concerns the target T4, Zap-70 (Homo sapiens, UniProt P43403).
T4 construct: Kinases are expressed as either kinase domains or full length constructs; made in house
T4 sequence (P43403 1-619): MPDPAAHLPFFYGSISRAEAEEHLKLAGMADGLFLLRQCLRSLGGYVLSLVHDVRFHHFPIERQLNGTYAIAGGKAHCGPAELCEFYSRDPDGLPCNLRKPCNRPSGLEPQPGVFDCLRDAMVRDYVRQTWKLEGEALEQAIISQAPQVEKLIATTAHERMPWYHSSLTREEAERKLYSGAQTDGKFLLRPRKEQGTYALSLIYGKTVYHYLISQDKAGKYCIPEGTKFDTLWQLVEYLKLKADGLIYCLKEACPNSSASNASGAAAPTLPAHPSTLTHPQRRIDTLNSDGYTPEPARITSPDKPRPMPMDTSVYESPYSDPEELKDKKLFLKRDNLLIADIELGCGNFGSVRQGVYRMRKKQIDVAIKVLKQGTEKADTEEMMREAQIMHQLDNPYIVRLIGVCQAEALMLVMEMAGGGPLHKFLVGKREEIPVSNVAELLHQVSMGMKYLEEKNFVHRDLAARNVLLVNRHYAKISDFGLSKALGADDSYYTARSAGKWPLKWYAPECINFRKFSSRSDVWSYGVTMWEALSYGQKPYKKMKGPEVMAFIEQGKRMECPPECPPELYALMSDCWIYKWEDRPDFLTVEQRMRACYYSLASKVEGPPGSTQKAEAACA
Description: Kinase inhibition assay (33P transfer), Zap-70. The conditions noted are these: Table 3, class symbols; read-out: Zap-1. A digest of the protocol:
as §1

Test [5] addresses T5, ErbB2 (Homo sapiens, UniProt P04626).
T5 construct: Kinases are expressed as either kinase domains or full length constructs; made in house
Description: Kinase inhibition assay (33P transfer), ErbB2. The conditions noted are these: read-out: ErbB2-2. A digest of the protocol: (§2)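 Recombinant kinase domains or full-length GST- or His-tagged constructs, from E. coli or baculovirus/High Five cells, sometimes with regulatory polypeptides. Transfer of 33P from ATP to plate-bound poly(Glu,Tyr) 4:1 or poly(Arg,Ser) 3:1 counted by liquid scintillation after phosphoric acid wash; IC50 is the concentration halving incorporation.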

In test [6] the target is T6, Lck (Homo sapiens, UniProt P06239).
T6 construct: Kinases are expressed as either kinase domains or full length constructs; made in house
T6 sequence (P06239 whole entry, species assumed, the tested form may be a part): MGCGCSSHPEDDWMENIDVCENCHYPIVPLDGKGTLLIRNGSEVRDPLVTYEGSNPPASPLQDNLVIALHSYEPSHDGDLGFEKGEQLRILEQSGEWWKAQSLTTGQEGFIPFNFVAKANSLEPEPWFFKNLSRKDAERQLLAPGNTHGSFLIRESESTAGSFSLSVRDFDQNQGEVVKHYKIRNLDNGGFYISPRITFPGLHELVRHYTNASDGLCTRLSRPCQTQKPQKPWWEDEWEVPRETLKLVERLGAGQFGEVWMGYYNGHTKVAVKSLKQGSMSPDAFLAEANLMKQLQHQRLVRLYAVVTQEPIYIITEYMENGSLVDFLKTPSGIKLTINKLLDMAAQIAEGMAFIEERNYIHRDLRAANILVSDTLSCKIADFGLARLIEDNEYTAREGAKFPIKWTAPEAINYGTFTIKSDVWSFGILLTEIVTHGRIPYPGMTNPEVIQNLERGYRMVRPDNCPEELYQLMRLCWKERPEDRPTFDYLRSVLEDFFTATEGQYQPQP
The test can be described thus: Kinase inhibition assay (33P transfer), Lck. The conditions noted are these: Table 3, class symbols; read-out: Lck-1. A digest of the protocol: as §1

The target of test [7] is T7, c-Met (Homo sapiens, UniProt P08581).
T7 construct: Kinases are expressed as either kinase domains or full length constructs; made in house
T7 sequence (P08581 25-1390): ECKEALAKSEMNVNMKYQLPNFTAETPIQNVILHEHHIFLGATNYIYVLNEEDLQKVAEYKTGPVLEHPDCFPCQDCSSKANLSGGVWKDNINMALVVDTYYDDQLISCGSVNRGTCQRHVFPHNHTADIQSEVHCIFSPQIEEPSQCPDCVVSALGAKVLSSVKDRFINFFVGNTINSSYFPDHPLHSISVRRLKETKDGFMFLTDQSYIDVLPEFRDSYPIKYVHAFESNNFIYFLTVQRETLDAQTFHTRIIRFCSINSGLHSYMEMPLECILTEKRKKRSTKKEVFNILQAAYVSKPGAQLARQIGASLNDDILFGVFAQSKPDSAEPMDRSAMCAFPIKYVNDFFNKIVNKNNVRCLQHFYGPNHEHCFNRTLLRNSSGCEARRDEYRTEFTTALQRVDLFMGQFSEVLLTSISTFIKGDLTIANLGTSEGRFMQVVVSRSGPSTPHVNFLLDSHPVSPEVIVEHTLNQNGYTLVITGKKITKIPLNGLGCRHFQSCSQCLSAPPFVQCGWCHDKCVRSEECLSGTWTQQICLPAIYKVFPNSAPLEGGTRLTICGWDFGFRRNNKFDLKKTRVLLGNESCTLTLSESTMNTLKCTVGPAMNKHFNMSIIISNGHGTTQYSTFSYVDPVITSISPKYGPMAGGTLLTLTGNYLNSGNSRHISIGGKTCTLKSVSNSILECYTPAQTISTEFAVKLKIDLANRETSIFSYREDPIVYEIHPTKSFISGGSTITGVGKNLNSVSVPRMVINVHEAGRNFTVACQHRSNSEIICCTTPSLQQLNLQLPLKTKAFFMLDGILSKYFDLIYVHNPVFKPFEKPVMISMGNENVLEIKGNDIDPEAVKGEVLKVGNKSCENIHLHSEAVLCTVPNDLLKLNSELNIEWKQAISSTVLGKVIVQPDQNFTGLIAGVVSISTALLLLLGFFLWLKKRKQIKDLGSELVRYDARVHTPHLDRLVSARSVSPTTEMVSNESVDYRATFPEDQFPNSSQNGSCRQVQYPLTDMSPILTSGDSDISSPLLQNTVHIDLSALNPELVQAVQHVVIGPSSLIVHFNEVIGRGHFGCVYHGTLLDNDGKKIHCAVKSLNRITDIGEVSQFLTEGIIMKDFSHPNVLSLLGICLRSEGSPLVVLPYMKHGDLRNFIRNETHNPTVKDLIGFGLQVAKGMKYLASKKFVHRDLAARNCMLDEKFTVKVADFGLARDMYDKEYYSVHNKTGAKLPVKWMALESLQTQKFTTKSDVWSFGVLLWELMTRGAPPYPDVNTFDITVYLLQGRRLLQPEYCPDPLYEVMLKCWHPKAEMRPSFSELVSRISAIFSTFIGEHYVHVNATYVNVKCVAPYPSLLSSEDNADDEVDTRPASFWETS
Description: Kinase inhibition assay (33P transfer), c-Met. The following applies: Table 2, class symbols A-E; read-out: Met-1. A digest of the protocol: as §2

Test [8] has as its target T8, Kdr (Homo sapiens, UniProt P35968).
T8 construct: Kinases are expressed as either kinase domains or full length constructs; made in house
Description: Kinase inhibition assay (33P transfer), Kdr. The following applies: Table 3, class symbols; read-out: KDR-1. In a few lines: as §1

Test [9] deals with T9, EGFR (Homo sapiens, UniProt P00533).
T9 construct: Kinases are expressed as either kinase domains or full length constructs; made in house
The test can be described thus: Kinase inhibition assay (33P transfer), EGFR. The following applies: Table 2, class symbols A-E; read-out: EGFR-1. In a few lines:
as §2

In test [10] the target is T10, Itk (Homo sapiens, UniProt Q08881).
T10 construct: Kinases are expressed as either kinase domains or full length constructs; made in house
T10 sequence (Q08881 1-620): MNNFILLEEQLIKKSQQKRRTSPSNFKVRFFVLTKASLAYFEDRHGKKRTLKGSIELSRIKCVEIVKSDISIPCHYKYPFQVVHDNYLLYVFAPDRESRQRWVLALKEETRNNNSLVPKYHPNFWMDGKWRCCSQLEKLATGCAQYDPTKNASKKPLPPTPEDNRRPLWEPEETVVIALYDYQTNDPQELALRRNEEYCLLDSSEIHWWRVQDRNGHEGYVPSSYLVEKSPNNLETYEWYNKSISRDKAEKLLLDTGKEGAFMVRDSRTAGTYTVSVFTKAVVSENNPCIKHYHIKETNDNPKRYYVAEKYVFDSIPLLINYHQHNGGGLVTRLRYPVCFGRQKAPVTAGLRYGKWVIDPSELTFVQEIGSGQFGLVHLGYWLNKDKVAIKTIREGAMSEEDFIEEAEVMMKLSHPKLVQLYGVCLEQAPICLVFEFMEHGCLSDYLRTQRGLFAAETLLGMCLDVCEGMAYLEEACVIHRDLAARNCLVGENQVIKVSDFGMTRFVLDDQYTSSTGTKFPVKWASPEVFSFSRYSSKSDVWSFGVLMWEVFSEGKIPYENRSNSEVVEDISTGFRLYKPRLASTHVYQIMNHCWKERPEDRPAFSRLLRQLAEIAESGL
Description: Kinase inhibition assay (33P transfer), Itk. The conditions noted are these: Table 3, class symbols; read-out: Itk-1. In a few lines: as §2

Some results are limits rather than exact numbers.

T8 sequence (P35968 20-1356, species assumed): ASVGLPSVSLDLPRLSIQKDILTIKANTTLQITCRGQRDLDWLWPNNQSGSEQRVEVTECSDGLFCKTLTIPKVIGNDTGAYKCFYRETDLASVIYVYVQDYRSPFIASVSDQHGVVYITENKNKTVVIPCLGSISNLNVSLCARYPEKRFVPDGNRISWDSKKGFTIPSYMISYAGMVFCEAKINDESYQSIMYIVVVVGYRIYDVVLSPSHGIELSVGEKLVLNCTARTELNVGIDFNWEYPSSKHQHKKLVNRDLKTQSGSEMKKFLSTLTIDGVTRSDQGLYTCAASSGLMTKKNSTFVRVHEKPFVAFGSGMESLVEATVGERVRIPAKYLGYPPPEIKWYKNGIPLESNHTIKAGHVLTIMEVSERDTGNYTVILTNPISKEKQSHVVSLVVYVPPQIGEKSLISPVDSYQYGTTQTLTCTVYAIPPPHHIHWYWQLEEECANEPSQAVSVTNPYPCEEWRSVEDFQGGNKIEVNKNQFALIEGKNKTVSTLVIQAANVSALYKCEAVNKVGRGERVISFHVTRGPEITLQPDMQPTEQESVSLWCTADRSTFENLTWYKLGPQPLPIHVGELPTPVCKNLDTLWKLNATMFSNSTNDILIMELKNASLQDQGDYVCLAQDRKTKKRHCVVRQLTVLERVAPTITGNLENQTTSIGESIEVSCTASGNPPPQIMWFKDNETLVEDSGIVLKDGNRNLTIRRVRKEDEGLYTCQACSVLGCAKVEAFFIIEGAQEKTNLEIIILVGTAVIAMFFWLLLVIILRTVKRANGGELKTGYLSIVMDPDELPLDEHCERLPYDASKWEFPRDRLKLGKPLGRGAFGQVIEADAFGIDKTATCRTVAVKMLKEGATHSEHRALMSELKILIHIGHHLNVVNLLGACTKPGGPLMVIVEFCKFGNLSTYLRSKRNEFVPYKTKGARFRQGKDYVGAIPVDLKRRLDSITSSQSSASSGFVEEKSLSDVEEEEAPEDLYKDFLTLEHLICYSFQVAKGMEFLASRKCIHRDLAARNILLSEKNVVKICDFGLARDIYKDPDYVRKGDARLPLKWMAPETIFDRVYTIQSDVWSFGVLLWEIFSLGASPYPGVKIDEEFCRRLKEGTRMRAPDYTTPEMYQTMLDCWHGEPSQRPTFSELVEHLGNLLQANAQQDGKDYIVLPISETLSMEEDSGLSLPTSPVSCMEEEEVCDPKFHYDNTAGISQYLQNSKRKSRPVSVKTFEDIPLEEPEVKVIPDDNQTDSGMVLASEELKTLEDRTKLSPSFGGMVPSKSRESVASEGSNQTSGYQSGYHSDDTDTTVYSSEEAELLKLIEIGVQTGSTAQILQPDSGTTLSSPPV
T5 sequence (P04626 23-1255, species assumed): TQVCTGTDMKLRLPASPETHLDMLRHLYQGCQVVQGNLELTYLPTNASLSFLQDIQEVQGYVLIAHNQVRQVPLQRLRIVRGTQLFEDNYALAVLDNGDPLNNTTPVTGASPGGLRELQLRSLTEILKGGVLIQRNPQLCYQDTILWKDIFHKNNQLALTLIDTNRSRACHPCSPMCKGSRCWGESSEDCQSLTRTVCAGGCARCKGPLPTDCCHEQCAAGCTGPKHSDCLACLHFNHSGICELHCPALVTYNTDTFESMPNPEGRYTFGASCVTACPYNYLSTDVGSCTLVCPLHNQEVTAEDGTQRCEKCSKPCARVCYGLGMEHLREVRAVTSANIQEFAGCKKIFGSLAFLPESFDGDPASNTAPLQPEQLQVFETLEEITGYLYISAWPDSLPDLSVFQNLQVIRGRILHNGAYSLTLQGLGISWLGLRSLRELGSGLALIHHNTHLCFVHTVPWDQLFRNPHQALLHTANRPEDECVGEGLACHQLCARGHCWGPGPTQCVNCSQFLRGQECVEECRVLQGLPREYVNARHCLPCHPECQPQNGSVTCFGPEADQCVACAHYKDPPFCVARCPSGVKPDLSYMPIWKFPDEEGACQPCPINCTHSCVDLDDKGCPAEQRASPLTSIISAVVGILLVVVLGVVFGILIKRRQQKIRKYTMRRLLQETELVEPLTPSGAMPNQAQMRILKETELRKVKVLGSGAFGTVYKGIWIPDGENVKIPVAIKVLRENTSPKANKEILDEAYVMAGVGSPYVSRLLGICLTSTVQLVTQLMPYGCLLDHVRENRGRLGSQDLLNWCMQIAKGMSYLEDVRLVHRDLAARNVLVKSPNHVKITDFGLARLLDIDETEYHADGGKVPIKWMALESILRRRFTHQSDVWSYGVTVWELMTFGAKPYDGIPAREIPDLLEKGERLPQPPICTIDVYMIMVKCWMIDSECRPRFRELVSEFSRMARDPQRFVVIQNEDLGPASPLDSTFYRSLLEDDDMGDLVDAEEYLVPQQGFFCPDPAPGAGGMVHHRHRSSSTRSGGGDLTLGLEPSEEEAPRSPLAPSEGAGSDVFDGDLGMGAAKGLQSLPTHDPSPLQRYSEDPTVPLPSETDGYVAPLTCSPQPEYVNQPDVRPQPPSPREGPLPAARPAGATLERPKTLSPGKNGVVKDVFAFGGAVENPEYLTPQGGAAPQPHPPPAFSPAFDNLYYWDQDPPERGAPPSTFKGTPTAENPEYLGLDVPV

As for `O=C(O)Cc1cccc(Nc2ncnc(Nc3ccc(Cl)cc3F)n2)c1` [Compound 968], the IC50 in [1] was below 1.07 µM; in test [2], 9.36 to 12 µM; in [3] it was above 12 µM; in test [4] it was above 12 µM; in [5], 6.42 to 9.36 µM; in test [6], above 12 µM. The IC50 in test [7] is 9.36 to 12 µM; in test [8] it was below 1.07 µM; in [9], 1.07 to 6.42 µM; in test [10] it was above 12 µM.

On to `Fc1ccc(Nc2ncnc(Nc3ccc4c(cnn4Cc4ccccc4)c3)n2)cc1F` [Compound 902], for which the IC50 is above 10.5 µM in test [1]; 5.59 to 8.15 µM in test [2]; 0.931 to 5.59 µM in test [3]; above 10.5 µM in test [4]; 0.931 to 5.59 µM in test [5]; above 10.5 µM in test [6]. The IC50 in test [7] is 0.931 to 5.59 µM; in [8], above 10.5 µM; in [9], below 0.931 µM; in test [10], above 10.5 µM.

`FC(F)(F)Oc1ccc(Nc2ncnc(Nc3ccc4c(cnn4Cc4ccccc4)c3)n2)cc1` [Compound 906]: the IC50 was above 9.43 µM in [1]; 5.03 to 7.33 µM in test [2]; 0.838 to 5.03 µM in test [3]; above 9.43 µM in test [4]; 0.838 to 5.03 µM in test [5]; above 9.43 µM in [6]. Also, the IC50 in [7] was 0.838 to 5.03 µM; in test [8] it was 0.838 to 5.03 µM; in test [9] it was 0.838 to 5.03 µM; in test [10] it was above 9.43 µM.

For the molecule `COC(=O)c1ccc(-c2cc(Nc3ncnc(NCCCO)n3)[nH]n2)cc1` [Compound 818], the IC50 is 1.08 to 6.5 µM in test [1]; above 12.2 µM in test [2]; above 12.2 µM in test [3]; above 12.2 µM in test [4]; above 12.2 µM in test [5]; above 12.2 µM in test [6]. Moreover, the IC50 in [7], in [8], in test [9] and in test [10] was above 12.2 µM in each case.

Take `Brc1cccc(Nc2ncnc(Nc3cccc(Cn4ccnn4)c3)n2)c1` [Compound 961]: the IC50 is 8.27 to 10.6 µM in test [1]; 0.945 to 5.67 µM in test [2]; above 10.6 µM in [3]; above 10.6 µM in [4]; below 0.945 µM in [5]; 5.67 to 8.27 µM in test [6]. Besides, the IC50 in test [7] is above 10.6 µM; in test [8] it was 0.945 to 5.67 µM; in test [9] it was below 0.945 µM; in [10] it was 5.67 to 8.27 µM.

Turning to `CN(c1cccc(Cl)c1)c1ncnc(Nc2ccc(OC(F)(F)F)cc2)n1` [Compound 874], the IC50 in [1], in test [2], in [3], in test [4], in [5] and in test [6] was above 11.4 µM each time. Further, the IC50 in test [7] was above 11.4 µM; in test [8], above 11.4 µM; in test [9] it was 1.01 to 6.06 µM; in test [10], above 11.4 µM.

As to `c1ccc(CNc2nc3ccccc3n2-c2ncnc(Nc3cccc(Cn4ccnn4)c3)n2)cc1` [Compound 965], the IC50 in test [1] is below 0.843 µM; in [2], above 9.48 µM; in test [3], above 9.48 µM; in test [4] it was above 9.48 µM; in test [5], 0.843 to 5.06 µM; in test [6], 0.843 to 5.06 µM. Further, the IC50 in test [7] was above 9.48 µM; in test [8], below 0.843 µM; in [9] it was below 0.843 µM; in test [10], 5.06 to 7.38 µM.

`COc1cc(Nc2ncnc(-c3cccnc3Nc3cccc(C#N)c3)n2)cc(OC)c1OC` [Compound 828]: the IC50 in test [1], in [2], in test [3], in test [4], in test [5] and in test [6] was above 9.88 µM each time. Further, the IC50 in test [7], in [8], in [9] and in test [10] was above 9.88 µM throughout.

As to `CCN(CC)CCN(C)c1ncnc(Nc2ccc(OC)c(OC)c2)n1` [Compound 870], the IC50 in [1], in [2], in test [3], in test [4], in test [5] and in test [6] was above 12.5 µM throughout. Moreover, the IC50 in test [7], in test [8], in test [9] and in test [10] was above 12.5 µM each time.

With `CN(c1cccc(Cl)c1)c1ncnc(Nc2cccc(OC(F)(F)F)c2)n1` [Compound 875], the IC50 is 1.01 to 6.06 µM in test [1]; above 11.4 µM in [2]; above 11.4 µM in test [3]; above 11.4 µM in test [4]; 1.01 to 6.06 µM in test [5]; above 11.4 µM in test [6]. Besides, the IC50 is 6.06 to 8.84 µM in test [7], 6.06 to 8.84 µM in [8], below 1.01 µM in [9] and 8.84 to 11.4 µM in [10].

For the molecule `COc1cc(Nc2ncnc(-c3cccnc3Nc3cccc(Oc4ccccc4)c3)n2)cc(OC)c1OC` [Compound 840], the IC50 in test [1] was 0.765 to 4.59 µM; in test [2], above 8.61 µM; in test [3], above 8.61 µM; in test [4], above 8.61 µM; in [5], 0.765 to 4.59 µM; in test [6], above 8.61 µM. Further, the IC50 was above 8.61 µM in test [7], 4.59 to 6.7 µM in test [8], above 8.61 µM in [9] and above 8.61 µM in test [10].

For `COc1cc(Nc2ncnc(-c3cccnc3Nc3ccc4c(c3)CCC4)n2)cc(OC)c1OC` [Compound 830], the IC50 in test [1], in [2], in test [3], in [4], in test [5] and in test [6] was above 9.56 µM each time. In addition, the IC50 was 0.85 to 5.1 µM in [7], 0.85 to 5.1 µM in [8], above 9.56 µM in test [9] and above 9.56 µM in test [10].

As to `COC(=O)c1ccc(-c2cc(Nc3ncnc(NCCNC(C)=O)n3)[nH]n2)cc1` [Compound 819], the IC50 in test [1] was 1.01 to 6.05 µM; in [2] it was above 11.4 µM; in test [3] it was above 11.4 µM; in [4], above 11.4 µM; in test [5] it was above 11.4 µM; in test [6] it was above 11.4 µM. Moreover, the IC50 in test [7], in [8], in [9] and in test [10] was above 11.4 µM each time.

For the molecule `COc1cc(Nc2ncnc(N(CCO)c3ccccc3)n2)cc(OC)c1OC` [Compound 637], the IC50 in test [1] is 6.04 to 8.81 µM; in test [2] it was above 11.3 µM; in test [3], above 11.3 µM; in test [4] it was above 11.3 µM; in [5], 6.04 to 8.81 µM; in test [6] it was 1.01 to 6.04 µM. Besides, the IC50 in [7] was 6.04 to 8.81 µM; in [8], 1.01 to 6.04 µM; in test [9] it was below 1.01 µM; in test [10], above 11.3 µM.
